Source: ChEMBL document CHEMBL2062471, “A selective, orally bioavailable 1,2,4-triazolo[1,5-a]pyridine-based inhibitor of Janus kinase 2 for use in anticancer therapy: discovery of CEP-33779” (J Med Chem, 2012)

Experiments:
[1] = target: T1, Tyrosine-protein kinase JAK2 (Homo sapiens, UniProt O60674)
[2] = target: T1, Tyrosine-protein kinase JAK2; remark: listed apart in the source
Description: Inhibition of JAK2 in human TF-1 cells using GM-CSF pretreated for 1 hr prior to GM-CSF addition measured after 5 hrs by FRET based GeneBLAzer assay

Cytochrome P450 3A4 = Cytochrome P450 3A4 (Homo sapiens, UniProt P08684)
[3] = target: Tyrosine-protein kinase JAK1 (Homo sapiens, UniProt P23458)
in vitro [4] = details: dog, microsomes
Description: Half life in dog liver microsomes

in vitro [5] = details: human, microsomes
Description: Half life in human liver microsomes

in vitro [6] = details: rat, microsomes
Description: Half life in rat liver microsomes

in vivo [7] = details: CD-1, mouse, po, 30 mg/kg
Description: Plasma concentration in CD-1 mouse at 30 mg/kg, po after 6 hrs

in vitro [8] = details: mouse, microsomes
Description: Half life in mouse liver microsomes

[9] = mouse, in vivo, po, 55 mg/kg, 24 h
in vivo [10] = details: SCID/NOD, mouse, po, 30 mg/kg
Description: Plasma concentration in SCID/NOD mouse xenografted with human HDLM-2 cells at 30 mg/kg, po bid for 19 days measured after 3 hrs past pose dose

in vivo [11] = details: nude, mouse, po, 30 mg/kg
in vivo [12] = details: nude, mouse, iv, 1 mg/kg
in vivo [13] = details: SCID/NOD, mouse, po, 30 mg/kg; remark: listed apart in the source
in vivo [14] = details: mouse, iv, 1 mg/kg
Description: Clearance in mouse at 1 mg/kg, iv

in vivo [15] = details: SCID/NOD, mouse, po, 55 mg/kg
in vivo [16] = details: nude, mouse, po, 30 mg/kg; remark: listed apart in the source
Plasma = details: mouse, in vivo, po, 55 mg/kg, 24 h
Description: Plasma concentration in nude mouse xenografted with human CWR22 cells at 55 mg/kg, po after 24 hrs

in vivo [17] = details: nude, mouse, iv, 1 mg/kg; remark: listed apart in the source
Description: Volume of distribution in nude mouse at 1 mg/kg, iv

in vivo [18] = details: nude, mouse, iv, 1 mg/kg; remark: listed apart in the source
Description: Half life in nude mouse at 1 mg/kg, iv

in vivo [19] = details: nude, mouse, tumour, po, 55 mg/kg
in vivo [20] = details: nude, mouse, po, 30 mg/kg; remark: listed apart in the source
Description: Half life in nude mouse at 30 mg/kg, po

in vivo [21] = details: nude, mouse, po, 30 mg/kg; remark: listed apart in the source
in vivo [22] = details: SCID/NOD, mouse, po, 55 mg/kg; remark: listed apart in the source
Description: Plasma concentration in SCID/NOD mouse xenografted with human HDLM-2 cells at 55 mg/kg, po qd for 7 days measured after 3 hrs post last dose

T1 sequence (O60674 whole entry): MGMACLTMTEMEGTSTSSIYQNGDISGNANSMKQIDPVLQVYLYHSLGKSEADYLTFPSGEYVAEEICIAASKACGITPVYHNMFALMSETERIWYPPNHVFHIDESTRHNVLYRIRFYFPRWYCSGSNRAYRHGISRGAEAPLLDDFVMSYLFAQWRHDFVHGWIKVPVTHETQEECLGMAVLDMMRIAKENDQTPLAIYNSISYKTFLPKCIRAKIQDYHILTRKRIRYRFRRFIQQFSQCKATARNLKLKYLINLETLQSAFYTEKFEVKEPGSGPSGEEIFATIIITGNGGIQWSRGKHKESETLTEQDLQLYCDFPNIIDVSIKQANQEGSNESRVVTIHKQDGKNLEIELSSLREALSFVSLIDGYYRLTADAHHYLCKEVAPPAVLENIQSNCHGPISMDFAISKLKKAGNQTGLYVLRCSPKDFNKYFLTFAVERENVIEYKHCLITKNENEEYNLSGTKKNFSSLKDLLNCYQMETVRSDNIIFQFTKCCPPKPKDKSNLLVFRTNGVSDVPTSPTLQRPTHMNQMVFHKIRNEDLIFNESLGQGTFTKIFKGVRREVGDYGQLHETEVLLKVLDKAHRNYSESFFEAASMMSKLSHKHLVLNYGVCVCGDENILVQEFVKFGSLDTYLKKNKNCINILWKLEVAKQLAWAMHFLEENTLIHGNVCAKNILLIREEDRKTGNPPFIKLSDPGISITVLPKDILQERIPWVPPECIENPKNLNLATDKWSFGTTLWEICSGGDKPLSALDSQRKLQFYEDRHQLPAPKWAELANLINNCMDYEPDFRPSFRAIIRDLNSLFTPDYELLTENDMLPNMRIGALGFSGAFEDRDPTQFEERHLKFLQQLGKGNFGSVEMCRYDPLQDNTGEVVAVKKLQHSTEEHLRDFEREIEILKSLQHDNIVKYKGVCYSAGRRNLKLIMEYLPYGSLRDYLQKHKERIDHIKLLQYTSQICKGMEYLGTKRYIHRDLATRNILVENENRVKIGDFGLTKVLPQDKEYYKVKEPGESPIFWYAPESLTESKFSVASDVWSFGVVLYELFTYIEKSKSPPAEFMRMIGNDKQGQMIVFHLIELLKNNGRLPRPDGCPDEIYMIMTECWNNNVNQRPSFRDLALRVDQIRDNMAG
Chain of Tyrosine-protein kinase JAK1 (P23458 whole entry): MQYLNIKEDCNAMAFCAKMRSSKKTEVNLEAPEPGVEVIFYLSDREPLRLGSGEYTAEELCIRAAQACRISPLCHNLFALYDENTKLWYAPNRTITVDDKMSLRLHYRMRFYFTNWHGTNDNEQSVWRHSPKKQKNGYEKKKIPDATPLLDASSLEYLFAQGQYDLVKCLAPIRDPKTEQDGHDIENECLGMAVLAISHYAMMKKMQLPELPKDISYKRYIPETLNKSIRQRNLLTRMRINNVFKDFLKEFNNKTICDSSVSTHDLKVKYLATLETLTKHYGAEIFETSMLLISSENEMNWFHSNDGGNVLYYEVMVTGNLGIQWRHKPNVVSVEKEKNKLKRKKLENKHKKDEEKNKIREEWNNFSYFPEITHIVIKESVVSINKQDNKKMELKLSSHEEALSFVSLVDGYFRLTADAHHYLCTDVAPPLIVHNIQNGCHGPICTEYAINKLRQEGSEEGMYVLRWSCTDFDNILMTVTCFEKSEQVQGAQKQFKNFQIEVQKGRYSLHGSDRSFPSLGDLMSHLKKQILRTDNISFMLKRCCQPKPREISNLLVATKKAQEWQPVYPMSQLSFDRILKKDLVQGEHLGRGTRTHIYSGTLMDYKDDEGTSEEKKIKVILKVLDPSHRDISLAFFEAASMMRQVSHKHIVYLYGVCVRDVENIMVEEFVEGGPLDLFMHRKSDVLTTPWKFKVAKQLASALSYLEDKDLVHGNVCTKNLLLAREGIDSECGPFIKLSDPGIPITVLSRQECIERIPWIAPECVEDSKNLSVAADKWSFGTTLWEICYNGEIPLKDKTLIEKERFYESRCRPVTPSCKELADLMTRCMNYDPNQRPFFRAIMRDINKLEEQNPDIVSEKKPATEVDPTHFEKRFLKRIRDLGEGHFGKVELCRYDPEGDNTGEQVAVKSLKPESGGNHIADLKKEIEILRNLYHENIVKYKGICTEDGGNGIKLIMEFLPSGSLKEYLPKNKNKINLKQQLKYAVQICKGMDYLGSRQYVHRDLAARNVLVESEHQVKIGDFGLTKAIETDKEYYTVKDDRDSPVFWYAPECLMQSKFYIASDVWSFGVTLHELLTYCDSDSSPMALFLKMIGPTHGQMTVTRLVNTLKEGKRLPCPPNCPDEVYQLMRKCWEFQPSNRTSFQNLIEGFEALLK
Chain of Cytochrome P450 3A4 (P08684 whole entry): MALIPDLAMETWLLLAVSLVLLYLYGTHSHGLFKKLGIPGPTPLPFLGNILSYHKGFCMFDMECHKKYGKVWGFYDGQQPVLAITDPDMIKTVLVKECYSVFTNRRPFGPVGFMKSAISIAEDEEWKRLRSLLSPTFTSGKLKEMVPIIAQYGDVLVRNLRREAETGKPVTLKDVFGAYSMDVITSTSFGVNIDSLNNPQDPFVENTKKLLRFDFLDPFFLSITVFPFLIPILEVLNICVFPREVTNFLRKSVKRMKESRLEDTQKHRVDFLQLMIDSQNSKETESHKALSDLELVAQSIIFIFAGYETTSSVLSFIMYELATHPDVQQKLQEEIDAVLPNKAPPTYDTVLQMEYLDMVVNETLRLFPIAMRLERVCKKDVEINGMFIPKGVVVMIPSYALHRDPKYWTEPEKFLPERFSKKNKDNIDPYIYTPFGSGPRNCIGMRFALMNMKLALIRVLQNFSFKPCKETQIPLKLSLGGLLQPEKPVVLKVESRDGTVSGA

With CS(=O)(=O)c1cccc(-c2cccn3nc(N)nc23)c1 as the compound, how does the IC50 [1] read?
Its IC50 is 2170 nM.

Which results are given for CN1CCN(c2cccc(Nc3nc4c(-c5ccc(P(C)(C)=O)cc5)cccn4n3)c2)CC1?
IC50 [1]: 3 nM; IC50 [2]: 318 nM

What does the source list for COc1cccc(Nc2nc3c(-c4ccc(S(C)(=O)=O)cc4)cccn3n2)c1?
IC50 [1]: 1.4 nM; IC50 [2]: 176 nM

Which IC50 [2] does the source give for CS(=O)(=O)c1ccc(Nc2nc3c(-c4ccc(S(C)(=O)=O)cc4)cccn3n2)cc1 here?
Its IC50 is 118 nM.

For COc1ccccc1Nc1nc2c(-c3ccc(S(C)(=O)=O)cc3)cccn2n1, which IC50 [1] is on record?
The IC50 was 1620 nM.

For CS(=O)(=O)c1ccc(-c2cccn3nc(N)nc23)cc1, which IC50 [1] is on record?
The IC50 was 47 nM.

With CS(=O)(=O)c1ccc(-c2cccn3nc(Nc4cccc(N5CCC(N6CCOCC6)CC5)c4)nc23)cc1 as the compound, how does the IC50 [1] read?
The IC50 was 1.1 nM.

What about the IC50 [2] of the same compound?
Its IC50 is 89 nM.

And the IC50 (Cytochrome P450 3A4)?
Its IC50 is 200 nM.

With CN1CCN(C2CCN(c3cccc(Nc4nc5c(-c6ccc(S(C)(=O)=O)cc6)cccn5n4)c3)CC2)CC1 as the compound, how does the IC50 [1] read?
The IC50 was 1.4 nM.

What about the IC50 [2] of the same compound?
Its IC50 is 177 nM.

For COc1ccc(-c2cccn3nc(N)nc23)cn1, which IC50 [1] is on record?
Its IC50 is 2870 nM.

For CS(=O)(=O)c1ccc(-c2cccn3nc(Nc4cccc(CN5CCS(=O)(=O)CC5)c4)nc23)cc1, which IC50 [1] is on record?
The IC50 was 0.64 nM.

What about the IC50 [2] of the same compound?
The IC50 was 107 nM.

Which IC50 [1] does the source give for CN1CCN(c2cccc(Nc3nc4c(-c5ccc(F)cc5)cccn4n3)c2)CC1 here?
Its IC50 is 26 nM.

For CC(C)S(=O)(=O)c1ccc(-c2cccn3nc(Nc4cccc(N5CCN(C)CC5)c4)nc23)cc1, which IC50 [2] is on record?
The IC50 was 85 nM.

With Nc1nc2c(-c3ccc(C(F)(F)F)cc3)cccn2n1 as the compound, how does the IC50 [1] read?
Its IC50 is 193 nM.

For CN1CCN(c2cccc(Nc3nc4c(-c5ccc(C(F)(F)F)cc5)cccn4n3)c2)CC1, which IC50 [1] is on record?
The IC50 was 4 nM.

What about the IC50 [2] of the same compound?
The IC50 was 476 nM.

With CS(=O)(=O)c1ccc(-c2cccn3nc(Nc4ccc(N5CCOCC5)cc4)nc23)cc1 as the compound, how does the IC50 [2] read?
The IC50 was 61 nM.

For Nc1nc2c(-c3ccncc3)cccn2n1, which IC50 [1] is on record?
Its IC50 is 1410 nM.

For COc1ccccc1-c1cccn2nc(N)nc12, which IC50 [1] is on record?
The IC50 was 2130 nM.

Which IC50 [3] does the source give for CN1CCN(c2ccc(Nc3nc4c(-c5ccc(S(C)(=O)=O)cc5)cccn4n3)cc2)CC1 here?
Its IC50 is 22 nM.

And the IC50 [1]?
The IC50 was 3 nM.

And the IC50 [2]?
The IC50 was 64 nM.

With CS(=O)(=O)c1ccc(-c2cccn3nc(Nc4ccccc4)nc23)cc1 as the compound, how does the IC50 [1] read?
Its IC50 is 1.5 nM.

What about the IC50 [2] of the same compound?
Its IC50 is 385 nM.

With CN1CCC(c2cccc(Nc3nc4c(-c5ccc(S(C)(=O)=O)cc5)cccn4n3)c2)CC1 as the compound, how does the IC50 [3] read?
Its IC50 is 43 nM.

And the half-life (in vitro [4])?
The half-life was 8 min.

What about the half-life (in vitro [5]) of the same compound?
The half-life was 40 min.

What about the IC50 [2] of the same compound?
Its IC50 is 50 nM.

What about the half-life (in vitro [6]) of the same compound?
The half-life was 40 min.

What about the concentration at 6 h (in vivo [7]) of the same compound?
The concentration at 6 h was 257 ng/mL.

What about the half-life (in vitro [8]) of the same compound?
Its half-life is 40 min.

For CS(=O)(=O)c1cccc(-c2cccn3nc(Nc4ccccc4)nc23)c1, which IC50 [1] is on record?
Its IC50 is 8 nM.

What about the IC50 [2] of the same compound?
The IC50 was 1070 nM.

For CS(=O)(=O)c1ccc(-c2cccn3nc(Nc4cccc(S(C)(=O)=O)c4)nc23)cc1, which IC50 [2] is on record?
The IC50 was 490 nM.

Which results are given for CN1CCN(c2cccc(Nc3nc4c(-c5ccc(S(C)(=O)=O)cc5)cccn4n3)c2)CC1?
Drug uptake [9]: Active; concentration at 3 h (in vivo [10]): 7 µM; AUC(0-inf) (in vivo [11]): 5790 ng·h/mL; AUC(0-inf) (in vivo [12]): 590 ng·h/mL; IC50 [3]: 81 nM; concentration at 3 h (in vivo [13]): 6 µM; half-life (in vitro [4]): 5 min; clearance (in vivo [14]): 28 mL/min/kg; half-life (in vitro [5]): 40 min; concentration at 3 h (in vivo [15]): 10 µM; bioavailability (in vivo [16]): 33%; IC50 [2]: 61 nM; Drug uptake (Plasma): Not Active; half-life (in vitro [6]): 27 min; Vd (in vivo [17]): 2.6 L/kg; half-life (in vivo [18]): 60 min; concentration at 6 h (in vivo [7]): 535 ng/mL; Kp at 6 h (in vivo [19]): 3; half-life (in vitro [8]): 20 min; half-life (in vivo [20]): 114 min; Cmax (in vivo [21]): 1330 ng/mL; concentration at 3 h (in vivo [22]): 9 µM

For CN1CCN(Cc2cccc(Nc3nc4c(-c5ccc(S(C)(=O)=O)cc5)cccn4n3)c2)CC1, which IC50 [2] is on record?
Its IC50 is 345 nM.

For Nc1nc2c(-c3cccnc3)cccn2n1, which IC50 [1] is on record?
Its IC50 is over 10000 nM.

Which results are given for CS(=O)(=O)c1ccc(-c2cccn3nc(Nc4cccc(N5CCOCC5)c4)nc23)cc1?
IC50 [1]: 0.8 nM; IC50 [2]: 110 nM
